These results are taken from paper PMC4822888, “Subtype-Selective Small Molecule Inhibitors Reveal a Fundamental Role for Nav1.7 in Nociceptor Electrogenesis, Axonal Conduction and Presynaptic Release” (PLoS ONE, 2016).

Molecules are shown by their SMILES. Like-named read-outs stand apart in the source and are kept apart here.

Assay [1] deals with substantia gelatinosa (SG) neurons of the superficial dorsal horn.
In assay [2] the test system is small diameter mouse DRG neurons. The format is cell-based.
Assay [3] relates to substantia gelatinosa (SG) neurons of the superficial dorsal horn. Put plainly: cells. The note with it: Mus musculus, Neuron.
The test system of assay [4] is small diameter mouse DRG neurons. Kind of assay: Current clamp of action potentials in small diameter mDRG neurons. The format is cell-based. The protocol: Dorsal root ganglia (DRG) were isolated and dissociated according to a previously published method. Briefly, DRGs were obtained from all spinal locations and dissociated neurons plated on glass coverslips pre-coated with poly-D-lysine/laminin (BD Biosciences) and left to adhere for 1.5–2 hrs before flooding. Growth media consisted of Lebovitz L-15 Glutamax (Life Technologies) supplemented with 10% FCS, 24 mM NaHCO3 and 38 mM glucose.
Electrophysiological recordings were obtained from stably transfected HEK 293 cells, acutely dissociated mouse DRG neurons, cultured human DRG neurons or mouse superficial dorsal horn neurons using either an Axopatch 200B or […] amplifier (Molecular Devices), or EPC-10 USB amplifier (HEKA). Small diameter mouse DRG neurons were identified as those with a whole cell capacitance between 10–25 pF [17]. For human DRG neurons, patch clamp recordings were obtained from small-to-medium diameter neurons (<60 μm), the majority of which have previously been classified as nociceptors.
ECS contained (in mM) 135 NaCl, 4.7 KCl, 1 CaCl2, 1 MgCl2, 10 HEPES and 10 glucose (300–310 mOsm, pH 7.4 with NaOH). ICS contained (in mM) 140 KCl, 0.5 EGTA, 5 HEPES, and 3 Mg-ATP, (pH 7.3 with KOH, 300–305 mOsm). Single action potentials were evoked from Vm -70 mV by a 20 ms suprathreshold current step (0.1 Hz).

For assay [5], the target named is mouse Nav1.7 (Mus musculus, UniProt Q62205). The format is cell-based.
Sequence of mouse Nav1.7 (Q62205 whole entry): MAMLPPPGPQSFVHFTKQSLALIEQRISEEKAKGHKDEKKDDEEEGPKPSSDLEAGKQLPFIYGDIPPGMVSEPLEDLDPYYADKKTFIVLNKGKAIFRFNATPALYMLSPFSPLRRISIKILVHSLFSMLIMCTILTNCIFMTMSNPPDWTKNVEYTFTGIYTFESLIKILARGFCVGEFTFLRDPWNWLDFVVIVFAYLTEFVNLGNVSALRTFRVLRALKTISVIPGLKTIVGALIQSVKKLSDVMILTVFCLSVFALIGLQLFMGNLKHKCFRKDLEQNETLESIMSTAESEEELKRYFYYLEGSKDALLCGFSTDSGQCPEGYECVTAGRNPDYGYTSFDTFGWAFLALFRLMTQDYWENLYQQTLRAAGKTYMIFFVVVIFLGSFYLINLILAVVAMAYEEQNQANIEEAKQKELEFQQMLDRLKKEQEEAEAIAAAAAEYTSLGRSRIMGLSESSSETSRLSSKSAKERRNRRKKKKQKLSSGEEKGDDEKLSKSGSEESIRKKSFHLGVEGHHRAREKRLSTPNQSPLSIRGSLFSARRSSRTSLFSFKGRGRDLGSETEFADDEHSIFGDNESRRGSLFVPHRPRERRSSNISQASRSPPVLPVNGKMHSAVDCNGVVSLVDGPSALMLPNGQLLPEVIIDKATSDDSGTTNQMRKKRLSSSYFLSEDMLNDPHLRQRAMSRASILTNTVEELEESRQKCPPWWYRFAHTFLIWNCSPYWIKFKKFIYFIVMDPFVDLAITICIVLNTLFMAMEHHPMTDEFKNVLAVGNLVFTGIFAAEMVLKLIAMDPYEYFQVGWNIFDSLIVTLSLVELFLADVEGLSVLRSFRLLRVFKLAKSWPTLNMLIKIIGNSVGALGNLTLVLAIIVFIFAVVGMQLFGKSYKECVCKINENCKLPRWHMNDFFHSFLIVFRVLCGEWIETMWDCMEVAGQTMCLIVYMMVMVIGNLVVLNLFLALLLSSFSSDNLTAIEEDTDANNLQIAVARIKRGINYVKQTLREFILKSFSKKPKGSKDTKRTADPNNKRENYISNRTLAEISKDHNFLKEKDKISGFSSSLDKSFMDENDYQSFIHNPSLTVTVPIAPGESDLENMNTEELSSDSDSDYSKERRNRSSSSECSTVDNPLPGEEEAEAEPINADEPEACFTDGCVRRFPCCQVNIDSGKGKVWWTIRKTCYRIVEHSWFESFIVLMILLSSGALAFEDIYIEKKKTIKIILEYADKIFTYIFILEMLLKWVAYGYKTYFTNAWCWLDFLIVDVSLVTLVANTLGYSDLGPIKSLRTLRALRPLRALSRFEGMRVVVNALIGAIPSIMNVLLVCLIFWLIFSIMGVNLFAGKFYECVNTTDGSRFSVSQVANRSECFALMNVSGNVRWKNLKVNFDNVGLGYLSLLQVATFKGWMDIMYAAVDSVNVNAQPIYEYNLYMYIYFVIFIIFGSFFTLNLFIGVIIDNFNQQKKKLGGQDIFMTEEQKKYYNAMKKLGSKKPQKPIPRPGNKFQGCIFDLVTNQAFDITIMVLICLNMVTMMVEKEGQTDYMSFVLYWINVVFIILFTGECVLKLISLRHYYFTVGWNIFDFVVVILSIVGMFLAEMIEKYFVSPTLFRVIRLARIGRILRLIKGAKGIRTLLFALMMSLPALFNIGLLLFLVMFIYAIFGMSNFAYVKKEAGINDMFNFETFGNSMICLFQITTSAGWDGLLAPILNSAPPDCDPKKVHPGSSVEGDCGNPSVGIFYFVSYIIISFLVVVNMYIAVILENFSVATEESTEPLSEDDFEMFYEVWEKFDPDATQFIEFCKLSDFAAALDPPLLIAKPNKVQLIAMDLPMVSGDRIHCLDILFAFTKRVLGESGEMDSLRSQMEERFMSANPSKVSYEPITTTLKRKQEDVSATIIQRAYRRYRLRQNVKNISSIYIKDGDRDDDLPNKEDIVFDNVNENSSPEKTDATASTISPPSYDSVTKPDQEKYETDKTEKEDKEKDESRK
Assay [6] relates to substantia gelatinosa (SG) neurons. Put plainly: Current clamp action potentials in SG neurons of mouse spinal cord slices. The format is cell-based. The settings on record: 30 nM.
Assay [7] relates to mDRG neurons. Put plainly: Action potential voltage clamp in mDRG neurons. The format is cell-based, mouse. The note with it: 30 nM, p < 0.05. The protocol: Recordings were performed as described in Blair & Bean (2002). Briefly, the internal solution contained (in mM): 140 K-Mes, 13.5 NaCl, 1.6 MgCl2, 0.09 EGTA, 9 HEPES, 0.9 glucose, 14 Tris-creatine PO4, 4 Mg-ATP, and 0.3 Tris-GTP (285–300 mOsm, pH 7.2 with KOH). The ECS was identical to that used for current clamp recordings (see above). Action potentials were recorded in current clamp mode following a 20 ms current injection from a Vm of -70 mV. The same cell was then examined under voltage-clamp (-70 mV) whereby the recorded action potential was used as the voltage command. Series resistance was compensated for by up to 80%.

Assay [8] has as its system synaptosomes prepared from L4/L5 spinal cord sections. Details: species or system mouse. The protocol:
A lumbosacral laminectomy was performed and a segment of lumbar spinal cord was removed into a petri dish containing ice-cold pre-oxygenated aCSF. The dura mater, ventral and dorsal roots and the pia-arachnoid membrane were removed. A small segment of the spinal cord containing only the lumbar region (L4–L5) was dissected free, weighed and placed into ice-cold homogenization buffer composition (mM) 0.32 M sucrose, 10 mM HEPES (pH 7.4, bubbled with 100% O2). Spinal cord tissue was homogenized in buffer using 20 strokes of a glass/glass hand homogenizer. The crude homogenate was diluted with 3 mL of ice-cold homogenization buffer and centrifuged at 1000 x g for 5 mins at 4°C. Synaptosomes were isolated from the supernatant by an additional centrifugation at 20,000 x g for 2 mins at 4°C. The synaptosomal pellet was resuspended in 3 mL of Krebs buffer with composition (in mM): NaCl 118, KCl 2.4, CaCl2 2.4, MgSO4 1.2, KH2PO4 1.2, NaHCO3 25, glucose 10, pH 7.4 (bubbled with 95% O2 and 5% CO2). Protein quantification was performed on the synaptosomal solution using the Bradford colorimetric protein assay and bovine serum albumin standards. Samples were diluted to obtain a final concentration of 0.1 mg mL^-1 for CGRP evaluation and 100 μL samples of the synaptosomal solution was pipetted into eppendorfs. Synaptosomes were incubated at 37°C for 10 mins in the presence of test compounds or DMSO (1 μl total volume). Synaptosomes were stimulated using Veratridine 10 μM in the presence of Thiorphan (10 μM) and incubated for a further 10 mins at 37°C. Samples were then filtered using […] filters and 100 μl of the filtrate was transferred to CGRP ELISA plate (Bertin Pharma) and assayed according to the manufactures instructions.

In assay [9] the target is mouse Nav1.1 (Mus musculus, UniProt A2APX8). The format is cell-based. The note with it: recombinant mouse Nav1.1.
The test system of assay [10] is WT mice. Put plainly: Capsaicin flare response in WT mice. The format is in vivo, mouse. The settings on record: 55 mins, vehicle 4930 ± 751.

Consider `NS(=O)(=O)c1cccc2c1c([N+](=O)[O-])cc1nc(O)c(O)nc12` [NBQX], for which, in [1] (5 μM, data not shown), the “Effect on Aδ and C fiber EPSCs” value is recorded as “completely abolished”.

Take `COc1cc(NC(=O)c2ccc(-c3ccc(Cl)cc3)o2)cc(OC)c1` [A-803467]: the “Block of total Na+ current” value in assay [2] (1 μM, small diameter mDRG neurons) was 34.1 ± 3.0%.

Regarding `Nc1n[nH]cc1-c1cc(C(F)(F)F)ccc1Oc1cc(F)c(S(=O)(=O)Nc2cscn2)cc1Cl` [PF-05198007, 4-(2-(3-amino-1H-pyrazol-4-yl)-4-(trifluoromethyl)phenoxy)-5-chloro-2-fluoro-N-(thiazol-4-yl)benzenesulfonamide], the inhibition (in general, the percentage by which the read-out fell short of the control) at 0.03 µM was determined as 46.9 ± 5.4% in [3] (read-out: Inhibition of Aδ-fiber evoked EPSC amplitude), 53.7 ± 10.1% in [3] (read-out: Inhibition of C-fiber evoked EPSC amplitude) and 87 ± 9% in [3] (read-out: Inhibition of C-fiber evoked EPSCs). Further, in [4] (30 nM, cells blocked/cells tested), the “Neurons with action potential failure (complete block)” value is on record as 6/13. The same compound yielded a Spike amplitude in assay [4] (control 43.0 ± 3.3 mV) of 37.7 ± 3.9 mV. In assay [4] (control 137 ± 19 mV/ms), the Upstroke slope is reported as 86 ± 11 mV/ms. In assay [4] (control -27.8 ± 2.0 mV), this compound displayed an Action potential threshold of -22.8 ± 1.6 mV. The Action potential rheobase in assay [4] (in presence of compound, control 173 ± 37 pA) was 239 ± 47 pA. Further, the “Action potential rheobase after washout” value in [4] (wash, control 173 ± 37 pA) worked out at 176 ± 35 pA. Moreover, the Slope in assay [5] is 1.1; in assay [9], 0.7. Moreover, the “Effect on action potentials evoked by injection of depolarizing current” value in assay [6] was “no effects”. Moreover, the “Neurons with dorsal root evoked action potentials abolished” value in assay [6] is on record as 8 out of 9. The “Block of total TTX-S current” value in assay [2] (30 nM, in presence of A-803467) came to 83.0 ± 2.7%. Moreover, in assay [1] (30 nM applied to the dorsal root only, p < 0.05), the “Latency of the C-fiber mediated EPSC” value is “delay in the latency”. In [7], the “Latency of inward current” value is recorded as “increased latency”. The “Peak amplitude of inward current” value in assay [7] was “decrease in the peak amplitude”. Moreover, the “Veratridine evoked CGRP release” value in assay [8] (30 nM, p < 0.05) is on record as “significantly reduced”; in [8] (100 nM, p < 0.05) it was “significantly reduced”. Moreover, the “Capsaicin flare response, AUC” value stood at 1967 ± 472 in assay [10] (1 mg/kg oral) and 2265 ± 382 in assay [10] (10 mg/kg oral).

With `Cc1cccc(C)c1OCC(C)N` (centres unmarked) [mexiletine, reference compound], the “Veratridine evoked CGRP release” value in assay [8] was “significantly reduced”.

As to `NC1=N[C@H](O)[C@H]2[C@H]3O[C@]4(O)O[C@@H]([C@@H](O)[C@@]2(N1)[C@@H]4O)[C@]3(O)CO` [TTX, tetrodotoxin], the “Effect on current remaining after A-803467” value in assay [2] was “abolished”. Also, the “Effect on Aδ and C fiber EPSCs” value in assay [1] is recorded as “completely abolished”.
